Measurements reported in patent US8785655B2, “Ionic liquid solvents” (Dublin City University, priority 2009, dated 2014).

Assays:
[1] = system: Klebsiella pneumoniae J 14368/08 ESBL-positive; assay: Screen against bacteria, MIC/IC80; type: cell-based; details: KP-E
[2] = system: Klebsiella pneumoniae D 11750/08; assay: Screen against bacteria, MIC/IC80; type: cell-based; details: KP
[3] = system: Staphylococcus epidermidis H 6966/08; assay: Screen against bacteria, MIC/IC80; type: cell-based; details: SE
[4] = system: Enterococcus sp. J 14365/08; assay: Screen against bacteria, MIC/IC80; type: cell-based; details: EF
[5] = system: Escherichia coli CCM4517; assay: Screen against bacteria, MIC/IC80; type: cell-based; details: EC
[6] = system: Candida krusei ATCC 6258; assay: In vitro antifungal activity, MIC by microdilution (NCCLS M27-A)
Experimental: (§1) In vitro antifungal activities of the compounds were evaluated on the collection of fungal strains deposited at the Department of Biological and Medical Sciences, Faculty of Pharmacy, Charles University, Czech Republic. All the isolates were maintained on Sabouraud dextrose agar prior to being tested.
(§2) Minimum inhibitory concentrations (MICs) were determined by the microdilution format of the NCCLS M27-A guidelines. […] RPMI 1640 (Sevapharma, Prague) medium supplemented with L-glutamine and buffered with 0.165 M morpholinepropanesulfonic acid to pH 7.0 was used as the test medium. The wells of the microdilution tray contained 100 μl of the RPMI 1640 medium with 2-fold serial dilutions of the compounds (1000 to 0.24 μmol/l for the new compounds) and 100 μl of inoculum suspension. Fungal inoculum in RPMI 1640 was prepared to give a final concentration of 5×103±0.2 cfu·ml-1. The trays were incubated at 35° C. and MICs were read visually for filamentous fungi and photometrically for yeasts as an optical density (OD) at 540 nm after 24 h and 48 h. The MICs were defined as 80% inhibition of the growth of control. MICs were determined twice and in duplicate. The deviations from the usually obtained were no higher than the nearest concentration value up and down the dilution scale.

[7] = system: Candida albicans ATCC 44859; assay: as above
[8] = system: Candida glabrata 20/l; assay: as above; details: CG
[9] = system: Aspergillus fumigatus 231; assay: as above; details: AF
Experimental: as §1, §2

[10] = system: Pseudomonas aeruginosa CCM 1961; assay: Screen against bacteria, MIC/IC80; type: cell-based; details: PA
[11] = system: Candida parapsilosis ATCC 22019; assay: In vitro antifungal activity, MIC by microdilution (NCCLS M27-A); details: CP
Experimental: as §1, §2

[12] = system: Staphylococcus aureus CCM 4516/08; assay: Screen against bacteria, MIC/IC80; type: cell-based; details: SA
[13] = system: Candida albicans ATCC 90028; assay: In vitro antifungal activity, MIC by microdilution (NCCLS M27-A)
[14] = system: Absidia corymbifera 272; assay: as above; details: AC
[15] = system: Staphylococcus aureus H 5996/08 Methiciline-resistant; assay: Screen against bacteria, MIC/IC80; type: cell-based; details: MRSA
[16] = system: Trichophyton mentagrophytes 445; assay: In vitro antifungal activity, MIC by microdilution (NCCLS M27-A); details: TM
Experimental: as §1, §2

[17] = system: Candida krusei E28; assay: as above
Experimental: All the isolates were maintained on Sabouraud dextrose agar prior to being tested.
as §2

[18] = system: Candida lusitaniae 2446/l; assay: as above; details: CL
Experimental: as §1, §2

[19] = system: Candida tropicalis 156; assay: as above; details: CT

Molecule: CCCCCOC(=O)[C@H](OC(=O)C[n+]1ccn(C)c1)c1ccccc1 [KG833, R-3-methyl-1-[1-(pentoxycarbonyl)-1-phenylmethoxycarbonylmethyl]imidazolium bromide]
- MIC/IC80 ([1]; 24 h): >1000 µM
- MIC/IC80 ([1]; 48 h): >1000 µM
- MIC/IC80 ([2]; 24 h): >1000 µM
- MIC/IC80 ([2]; 48 h): >1000 µM
- MIC/IC80 ([3]; 24 h): >1000 µM
- MIC/IC80 ([3]; 48 h): >1000 µM
- MIC/IC80 ([4]; 24 h): >1000 µM
- MIC/IC80 ([4]; 48 h): >1000 µM
- MIC/IC80 ([5]; 24 h): >1000 µM
- MIC/IC80 ([5]; 48 h): >1000 µM
- MIC/IC80 ([6]; CK1, 24 h): 1000 µM
- MIC/IC80 ([6]; CK1, 48 h): >1000 µM
- MIC/IC80 ([7]; CA1, 24 h): 500 µM
- MIC/IC80 ([7]; CA1, 48 h): >1000 µM
- MIC/IC80 ([8]; 24 h): 1000 µM
- MIC/IC80 ([8]; 48 h): >1000 µM
- MIC/IC80 ([9]; 24 h): 1000 µM
- MIC/IC80 ([9]; 48 h): 1000 µM
- MIC/IC80 ([10]; 24 h): >1000 µM
- MIC/IC80 ([10]; 48 h): >1000 µM
- MIC/IC80 ([11]; 24 h): >1000 µM
- MIC/IC80 ([11]; 48 h): >1000 µM
- MIC/IC80 ([12]; 24 h): 1000 µM
- MIC/IC80 ([12]; 48 h): >1000 µM
- MIC/IC80 ([13]; CA2, 24 h): 1000 µM
- MIC/IC80 ([13]; CA2, 48 h): >1000 µM
- MIC/IC80 ([14]; 24 h): 1000 µM
- MIC/IC80 ([14]; 48 h): 1000 µM
- MIC/IC80 ([15]; 24 h): >1000 µM
- MIC/IC80 ([15]; 48 h): >1000 µM
- MIC/IC80 ([16]; 72 h): 500 µM
- MIC/IC80 ([16]; 120 h): 500 µM
- MIC/IC80 ([17]; CK2, 24 h): 1000 µM
- MIC/IC80 ([17]; CK2, 48 h): >1000 µM
- MIC/IC80 ([18]; 24 h): >1000 µM
- MIC/IC80 ([18]; 48 h): >1000 µM
- MIC/IC80 ([19]; 24 h): 1000 µM
- MIC/IC80 ([19]; 48 h): >1000 µM

Molecule: CCOCCOC(=O)[C@H](OC(=O)C[n+]1ccn(C)c1)c1ccccc1 [KG835, R-3-methyl-1-[1-(ethoxyethoxycarbonyl)-1-phenylmethoxycarbonylmethyl]imidazolium bromide]
- MIC/IC80 ([1]; 24 h): >1000 µM
- MIC/IC80 ([1]; 48 h): >1000 µM
- MIC/IC80 ([2]; 24 h): >1000 µM
- MIC/IC80 ([2]; 48 h): >1000 µM
- MIC/IC80 ([3]; 24 h): >1000 µM
- MIC/IC80 ([3]; 48 h): >1000 µM
- MIC/IC80 ([4]; 24 h): >1000 µM
- MIC/IC80 ([4]; 48 h): >1000 µM
- MIC/IC80 ([5]; 24 h): >1000 µM
- MIC/IC80 ([5]; 48 h): >1000 µM
- MIC/IC80 ([6]; CK1, 24 h): >1000 µM
- MIC/IC80 ([6]; CK1, 48 h): >1000 µM
- MIC/IC80 ([7]; CA1, 24 h): >1000 µM
- MIC/IC80 ([7]; CA1, 48 h): >1000 µM
- MIC/IC80 ([8]; 24 h): >1000 µM
- MIC/IC80 ([8]; 48 h): >1000 µM
- MIC/IC80 ([9]; 24 h): >1000 µM
- MIC/IC80 ([9]; 48 h): >1000 µM
- MIC/IC80 ([10]; 24 h): >1000 µM
- MIC/IC80 ([10]; 48 h): >1000 µM
- MIC/IC80 ([11]; 24 h): >1000 µM
- MIC/IC80 ([11]; 48 h): >1000 µM
- MIC/IC80 ([12]; 24 h): >1000 µM
- MIC/IC80 ([12]; 48 h): >1000 µM
- MIC/IC80 ([13]; CA2, 24 h): >1000 µM
- MIC/IC80 ([13]; CA2, 48 h): >1000 µM
- MIC/IC80 ([14]; 24 h): >1000 µM
- MIC/IC80 ([14]; 48 h): >1000 µM
- MIC/IC80 ([15]; 24 h): >1000 µM
- MIC/IC80 ([15]; 48 h): >1000 µM
- MIC/IC80 ([16]; 72 h): >1000 µM
- MIC/IC80 ([16]; 120 h): >1000 µM
- MIC/IC80 ([17]; CK2, 24 h): >1000 µM
- MIC/IC80 ([17]; CK2, 48 h): >1000 µM
- MIC/IC80 ([18]; 24 h): >1000 µM
- MIC/IC80 ([18]; 48 h): >1000 µM
- MIC/IC80 ([19]; 24 h): >1000 µM
- MIC/IC80 ([19]; 48 h): >1000 µM

Molecule: R-3-methyl-1-[1-(ethoxyethoxycarbonyl)-1-methylmethoxycarbonylmethyl]imidazolium octyl sulphate [KG173]
- MIC/IC80 ([1]; 24 h): >1000 µM
- MIC/IC80 ([1]; 48 h): >1000 µM
- MIC/IC80 ([2]; 24 h): >1000 µM
- MIC/IC80 ([2]; 48 h): >1000 µM
- MIC/IC80 ([3]; 24 h): >1000 µM
- MIC/IC80 ([3]; 48 h): >1000 µM
- MIC/IC80 ([4]; 24 h): >1000 µM
- MIC/IC80 ([4]; 48 h): >1000 µM
- MIC/IC80 ([5]; 24 h): >1000 µM
- MIC/IC80 ([5]; 48 h): >1000 µM
- MIC/IC80 ([6]; CK1, 24 h): >1000 µM
- MIC/IC80 ([6]; CK1, 48 h): >1000 µM
- MIC/IC80 ([7]; CA1, 24 h): >1000 µM
- MIC/IC80 ([7]; CA1, 48 h): >1000 µM
- MIC/IC80 ([8]; 24 h): >1000 µM
- MIC/IC80 ([8]; 48 h): >1000 µM
- MIC/IC80 ([9]; 24 h): >1000 µM
- MIC/IC80 ([9]; 48 h): >1000 µM
- MIC/IC80 ([10]; 24 h): >1000 µM
- MIC/IC80 ([10]; 48 h): >1000 µM
- MIC/IC80 ([11]; 24 h): >1000 µM
- MIC/IC80 ([11]; 48 h): >1000 µM
- MIC/IC80 ([12]; 24 h): >1000 µM
- MIC/IC80 ([12]; 48 h): >1000 µM
- MIC/IC80 ([13]; CA2, 24 h): >1000 µM
- MIC/IC80 ([13]; CA2, 48 h): >1000 µM
- MIC/IC80 ([14]; 24 h): >1000 µM
- MIC/IC80 ([14]; 48 h): >1000 µM
- MIC/IC80 ([15]; 24 h): >1000 µM
- MIC/IC80 ([15]; 48 h): >1000 µM
- MIC/IC80 ([16]; 72 h): >1000 µM
- MIC/IC80 ([16]; 120 h): >1000 µM
- MIC/IC80 ([17]; CK2, 24 h): >1000 µM
- MIC/IC80 ([17]; CK2, 48 h): >1000 µM
- MIC/IC80 ([18]; 24 h): >1000 µM
- MIC/IC80 ([18]; 48 h): >1000 µM
- MIC/IC80 ([19]; 24 h): >1000 µM
- MIC/IC80 ([19]; 48 h): >1000 µM
